The values that follow come from publication PMC10579241, “Impact of trifluoromethyl and sulfonyl groups on the biological activity of novel aryl-urea derivatives: synthesis, in-vitro, in-silico and SAR studies” (Scientific Reports, 2023).

What all share (assay type): cell-based
The test system of assay [1] is Escherichia coli. As to the kind of experiment: Agar well diffusion, E. coli. On the technique in general: A growth-free zone around the sample is the usual read-out of agar diffusion tests.
Assay [2] concerns Bacillus mycoides. As to the kind of experiment: microbe, parasite or virus in culture.
In assay [3] the test system is Candida albicans. The experiment in a line: Agar well diffusion, C. albicans.
The test system of assay [4] is skin cancer (A431). As to the kind of experiment: cells. Particulars: Homo sapiens, A-431, 100 μg/mL, 48 h.
Assay [5] deals with pancreatic cancer cell line (PACA2). As to the kind of experiment: cells. To be noted: Homo sapiens, PaCa-2, 48 h, 100 μg/mL.
The subject of assay [6] is colon cancer (HCT116). As to the kind of experiment: cells. To be noted: Homo sapiens, HCT-116, 48 h, 100 μg/mL.
The test system of assay [7] is osteosarcoma cell line (HOS). As to the kind of experiment: cells. To be noted: Homo sapiens, 48 h; for mortality at 100 µg/mL: 100 μg/mL.
Assay [8] deals with human lung carcinoma (A549). The experiment in a line: cells. To be noted: A549, 48 h, 100 μg/mL.
Assay [9] deals with prostate cancer (PC3). The experiment in a line: cells. Particulars: Homo sapiens, 48 h, 100 μg/mL.
Assay [10] concerns hepatocellular carcinoma cell line (HePG2). As to the kind of experiment: cells. To be noted: Homo sapiens, 48 h; for mortality at 100 µg/mL: 100 μg/mL.
[11] abbreviates: Escherichia coli, E. coli, reference antibiotic 10 mcg, read-out: Inhibition zones diameter.
Where [12] appears, read: Bacillus mycoides, read-out: Inhibition zones diameter.
[13] abbreviates: Candida albicans, C. albicans, reference antibiotic 10 mcg, read-out: Inhibition zones diameter.
Where [14] appears, read: Escherichia coli, read-out: Inhibition zones diameter.
Where [15] appears, read: Candida albicans, read-out: Inhibition zones diameter.

A value given as a limit tells only on which side of the number the result lay.

Take `CC1(C)S[C@@H]2[C@H](NC(=O)[C@H](N)c3ccccc3)C(=O)N2[C@H]1C(=O)O` [Ampicillin, reference compound]: the zone of inhibition at 10 µg/disc came to 20 ± 1.05 mm in assay [1] (setting [11]), 12 ± 0.93 mm in assay [2] (setting [12]) and 14 ± 0.25 mm in [3] (setting [13]).

As usually defined, the mortality is the percentage killed. As to `COc1cc(NC(=O)NS(=O)(=O)c2ccc(C)cc2)cc(OC)c1` [Compound 10, N-[(3,5-Dimethoxyphenyl)carbamoyl]-4-methylbenzenesulfonamide], the mortality at 100 µg/mL was 23.5 ± 0.97% in [4]; above 50% in assay [5]; 37.5 ± 1.12% in assay [6]; 12.3 ± 1.21% in assay [7]; 34.2 ± 1.2% in assay [8]; 35.2 ± 0.89% in assay [9]. Moreover, the zone of inhibition at 10000 µg/mL in assay [1] (setting [14]) is 22 ± 0.39 mm; in [2] (setting [12]) it was 24 ± 0.87 mm; in assay [3] (setting [15]) it was 21 ± 0.32 mm.

The term IC50 denotes the concentration that inhibits the measured activity by half. In the case of `Cc1ccc(NC(=O)Nc2ccc(OC(F)(F)F)cc2)cc1` [Compound 14, 1-(p-Tolyl)-3-[4-(trifluoromethoxy)phenyl]urea], the mortality at 100 µg/mL in assay [4] was 2.3 ± 0.66%; in assay [5], 47.2 ± 1.47%; in [10], 65.3 ± 1.44%; in assay [6], 5.6 ± 0.47%; in assay [7], 100%; in [8], 38.5 ± 1.41%. For the same compound, the mortality at 100 µg/mL in assay [9] is 45.3 ± 1.28%. Moreover, the zone of inhibition at 10000 µg/mL in assay [1] (setting [14]) worked out at 17 ± 0.81 mm; in [2] (setting [12]), 15 ± 0.25 mm; in assay [3] (setting [15]) it was 17 ± 0.27 mm. For the same compound, half-maximal inhibition in [7] (MTT) (IC50) required 61.6 ± 0.81 µM.

In the case of `COc1cc(NC(=O)Nc2ccc(C)cc2)cc(OC)c1` [Compound 16, 1-[3,5-Dimethoxyphenyl]-3-(p-tolyl)urea], the mortality at 100 µg/mL in assay [4] was 40.3 ± 1.22%; in [5] it was above 50%; in assay [10], 34.2 ± 0.13%; in [6], 5.9 ± 0.78%; in assay [7], above 50%; in assay [8], 35.9 ± 0.7%. This compound also displayed a mortality at 100 µg/mL in [9] of 44.6 ± 0.25%. In addition, the values for the zone of inhibition at 10000 µg/mL in [1] (setting [14]), in [2] (setting [12]) and in assay [3] (setting [15]) were 16 ± 0.35 mm, 16 ± 0.97 mm and 16 ± 0.95 mm, respectively.

Turning to `Cc1ccc(NC(=O)Nc2ccccc2C(F)(F)F)cc1` [Compound 17, 1-(p-Tolyl)-3-[2-(trifluoromethyl)phenyl]urea], the mortality at 100 µg/mL in assay [4] is 3.1 ± 1.14%; in assay [5] it was above 50%; in [10], 71.2 ± 1.45%; in assay [6], 7.5 ± 0.92%; in assay [7], above 50%; in assay [8], 7.3 ± 0.35%. This compound showed a mortality at 100 µg/mL in [9] above 50%. In addition, the zone of inhibition at 10000 µg/mL worked out at 16 ± 0.54 mm in assay [1] (setting [14]), 18 mm in assay [2] (setting [12]) and 15 ± 0.42 mm in assay [3] (setting [15]). In addition, in assay [10] (MTT), the IC50 was 199.3 ± 0.82 µM.

Turning to `CC[C@H]1OC(=O)[C@H](C)[C@@H](O[C@H]2C[C@@](C)(OC)[C@@H](O)[C@H](C)O2)[C@H](C)[C@@H](O[C@@H]2O[C@H](C)C[C@H](N(C)C)[C@H]2O)[C@](C)(O)C[C@@H](C)C(=O)[C@H](C)[C@@H](O)[C@]1(C)O` [Erythromycin, reference compound], the zone of inhibition at 15 µg/disc stood at 29 ± 2.13 mm in assay [1] (Escherichia coli, E. coli, reference antibiotic 15 mcg, read-out: Inhibition zones diameter); 17 ± 0.15 mm in [2] (setting [12]); 25 mm in assay [3] (Candida albicans, C. albicans, reference antibiotic 15 mcg, read-out: Inhibition zones diameter).

In the case of `CNC(C)C1CCC(N)C(OC2C(N)CC(N)C(OC3OCC(C)(O)C(NC)C3O)C2O)O1` (centres unmarked) [Gentamicin, reference compound], the zone of inhibition at 10 µg/disc in assay [1] (setting [11]) worked out at 12 ± 0.18 mm; in [2] (setting [12]), 11 ± 0.43 mm; in assay [3] (setting [13]), 12 ± 0.89 mm.

In the case of `NC[C@H]1O[C@H](O[C@H]2[C@H](O)[C@@H](O[C@H]3O[C@H](CO)[C@@H](O)[C@H](N)[C@H]3O)[C@H](N)C[C@@H]2N)[C@H](N)C[C@@H]1O` [Tobramycin, reference compound], the zone of inhibition at 10 µg/disc in assay [1] (setting [11]) came out at 13 ± 0.22 mm; in [2] (setting [12]), 10 ± 0.31 mm; in assay [3] (setting [13]), 12 ± 0.61 mm.

Regarding Colstin [reference compound], the Inhibition zones diameter in assay [1] (E. coli, reference antibiotic 10 mcg) was 0 mm; in assay [2] it was 0 mm; in assay [3] (C. albicans, reference antibiotic 10 mcg) it was 0 mm.
